The values that follow come from US9187471B2, “Pyrido [4,3-b] indole and pyrido [3,4-b] indole derivatives and methods of use” (Medivation Technologies, Inc., priority 2010, dated 2015).

For orientation: inhibition means the relative decrease from the control value, in per cent.

The target in experiment [1] is T1, human recombinant serotonin (5-Hydroxytryptamine) 5-HT2A receptor (Homo sapiens, UniProt P28223).
T1 construct: expressed in transfected cells; host or cells: CHO-K1
The experiment in a line: Serotonin 5-HT2A radioligand binding ([3H]Ketanserin). The settings on record: compound at 0.1 μM; read-out: Inhibition of ligand binding, Serotonin 5-HT2A (percent inhibition of specific binding). The method, then:
Compounds of the invention were incubated with 0.5 nM [^3H]Ketanserin for 60 min at 25° C. Non-specific binding was estimated in the presence of 1 μM Mianserin. Receptor proteins were filtered and washed, the filters were then counted to determine [^3H]Ketanserin specifically bound.

Experiment [2] concerns the target T2, human recombinant serotonin (5-Hydroxytryptamine) 5-HT7 receptor (Homo sapiens, UniProt P34969).
T2 construct: expressed in transfected cells; host or cells: CHO
As to the kind of experiment: Serotonin 5-HT7 radioligand binding ([3H]LSD). The settings on record: compound at 0.1 μM; read-out: Inhibition of ligand binding, Serotonin 5-HT7 (percent inhibition of specific binding). The method, then:
Lysergic acid diethylamide (LSD) for 120 min. at 25° C. […] Receptor proteins were filtered and washed, the filters were then counted to determine [^3H]LSD specifically bound.

Experiment [3] deals with T3, human recombinant serotonin (5-Hydroxytryptamine) 5-HT6 receptor (Homo sapiens, UniProt P50406).
T3 construct: expressed in transfected cells; host or cells: HeLa
As to the kind of experiment: Serotonin 5-HT6 radioligand binding ([3H]LSD). The following applies: compound at 0.1 μM; read-out: Inhibition of ligand binding, Serotonin 5-HT6 (percent inhibition of specific binding). The text has this: Receptor proteins were filtered and washed, the filters were then counted to determine [3H]LSD specifically bound.

T1 sequence (P28223 whole entry): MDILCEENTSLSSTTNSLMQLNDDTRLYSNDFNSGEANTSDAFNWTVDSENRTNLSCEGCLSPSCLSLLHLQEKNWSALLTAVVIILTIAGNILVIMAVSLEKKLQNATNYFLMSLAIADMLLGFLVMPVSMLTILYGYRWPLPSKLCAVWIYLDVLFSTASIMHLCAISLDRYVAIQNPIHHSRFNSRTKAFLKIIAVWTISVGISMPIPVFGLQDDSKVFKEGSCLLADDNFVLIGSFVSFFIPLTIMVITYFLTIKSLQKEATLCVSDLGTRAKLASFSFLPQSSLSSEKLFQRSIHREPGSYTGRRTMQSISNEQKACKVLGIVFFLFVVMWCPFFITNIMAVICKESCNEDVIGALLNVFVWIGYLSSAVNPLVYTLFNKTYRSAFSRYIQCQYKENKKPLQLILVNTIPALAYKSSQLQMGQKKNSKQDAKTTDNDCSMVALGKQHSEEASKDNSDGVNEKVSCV
T2 sequence (P34969 whole entry): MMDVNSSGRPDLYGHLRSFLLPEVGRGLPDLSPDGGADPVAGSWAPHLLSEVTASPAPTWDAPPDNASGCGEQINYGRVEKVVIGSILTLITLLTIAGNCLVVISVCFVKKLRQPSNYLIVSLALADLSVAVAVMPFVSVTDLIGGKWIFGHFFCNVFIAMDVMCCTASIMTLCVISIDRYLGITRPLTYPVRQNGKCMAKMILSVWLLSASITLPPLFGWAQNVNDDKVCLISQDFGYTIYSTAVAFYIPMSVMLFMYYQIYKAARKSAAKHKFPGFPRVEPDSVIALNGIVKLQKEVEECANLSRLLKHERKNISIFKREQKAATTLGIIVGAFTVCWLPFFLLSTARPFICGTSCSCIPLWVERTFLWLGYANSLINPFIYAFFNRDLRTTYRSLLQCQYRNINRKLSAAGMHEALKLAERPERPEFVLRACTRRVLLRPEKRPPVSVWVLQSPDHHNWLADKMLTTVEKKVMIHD
T3 sequence (P50406 whole entry): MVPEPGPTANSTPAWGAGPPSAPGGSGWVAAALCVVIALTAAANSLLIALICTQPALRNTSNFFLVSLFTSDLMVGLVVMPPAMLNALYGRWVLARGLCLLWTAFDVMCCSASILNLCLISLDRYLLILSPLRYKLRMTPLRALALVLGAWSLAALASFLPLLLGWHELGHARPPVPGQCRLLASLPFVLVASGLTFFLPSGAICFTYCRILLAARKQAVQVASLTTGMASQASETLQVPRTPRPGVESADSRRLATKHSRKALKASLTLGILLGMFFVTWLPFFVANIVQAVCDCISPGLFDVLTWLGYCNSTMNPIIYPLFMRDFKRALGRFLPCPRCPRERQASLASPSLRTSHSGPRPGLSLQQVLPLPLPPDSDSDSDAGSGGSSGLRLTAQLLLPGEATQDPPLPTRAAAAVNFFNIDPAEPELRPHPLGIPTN

Regarding `Cc1ccc2c(c1)c1c(n2-c2cnc(C)c3ccccc23)CCN(C)C1` [Compound No. 164, 2,8-dimethyl-5-(1-methylisoquinolin-4-yl)-2,3,4,5-tetrahydro-1H-pyrido[4,3-b]indole], the inhibition at 0.1 µM in experiment [1] was 23%; in experiment [2], 4%; in experiment [3], 1%.
The corresponding values for `Cc1ccc2c(c1)c1c(n2-c2ccccc2-c2ccc(S(N)(=O)=O)cc2)CCN(C)C1` [Compound No. 163, 2′-(2,8-dimethyl-3,4-dihydro-1H-pyrido[4,3-b]indol-5(2H)-yl)biphenyl-4-sulfonamide] are 73%, 36% and 13%.
In the case of `Cc1ccc2c(c1)c1c(n2-c2ccccc2-c2ccc(S(C)(=O)=O)cc2)CCN(C)C1` [Compound No. 160, 2,8-dimethyl-5-(4′-(methylsulfonyl)biphenyl-2-yl)-2,3,4,5-tetrahydro-1H-pyrido[4,3-b]indole], the inhibition at 0.1 µM is 36% in experiment [1], 17% in experiment [2] and 18% in experiment [3].
The corresponding values for `Cc1ccc2c(c1)c1c(n2-c2ncccc2-c2ccncc2)CCN(C)C1` [Compound No. 161, 5-(3,4′-bipyridin-2-yl)-2,8-dimethyl-2,3,4,5-tetrahydro-1H-pyrido[4,3-b]indole] are 17%, 18% and 4%.
The corresponding values for `Cc1ccc2c(c1)c1c(n2-c2ccccc2-c2cnccc2C)CCN(C)C1` [Compound No. 159, 2,8-dimethyl-5-(2-(4-methylpyridin-3-yl)phenyl)-2,3,4,5-tetrahydro-1H-pyrido[4,3-b]indole] are 48%, 19% and 0%.
